Source: US20240199635A1, “TETRAHYDROTHIENO PYRIDINE DERIVATIVES AS DDRS INHIBITORS” (CHIESI FARMACEUTICI S.P.A., priority 2021, published 2024)
pIC50, pKi: −log10 of the molar value. Like-named read-outs stand apart in the source and are kept apart here.

Key:
[1] = biological target: T1, DDR1 (Homo sapiens (Human), UniProt Q08345); assay: DDR1 binding assay (LanthaScreen Europium Kinase Binding assay)
Experimental: (§1) DDR1 and DDR2 binding assays were performed using Life Technologies LanthaScreen™ Europium Kinase Binding assay. The compounds were incubated with 5 nM DDR1 (Carna Biosciences) or 5 nM DDR2 (Life Technologies) for 1 hour at room temperature in white 384-well OptiPlate (PerkinElmer), containing 20 nM or 10 nM Kinase Tracer 178 respectively and 2 nM Europium labelled anti-GST antibody (Life Technologies) in assay buffer (50 mM HEPES pH 7.5, 10 mM MgCl2, 1 mM EGTA and 0.01% BRIJ35).
(§2) The ratio of fluorescence emission 665 nm/615 nm after excitation at 340 nm was obtained using the Tecan Spark 20M plate reader. IC50 values were determined in GraphPad Prism 7.0 software, using 4 parameter model: log(inhibitor) vs. response. IC50 values were converted in Ki using the Cheng-Prusoff equation (Ki=IC50/(1+[Tracer]/Kd).

[2] = biological target: DDR2 (Homo sapiens (Human), UniProt Q16832); assay: DDR2 binding assay (LanthaScreen Europium Kinase Binding assay)
Experimental: as §1, §2

[3] = biological target: T1, DDR1; assay: DDR1 cell based assay (PathHunter U2OS DDR1 assay); conditions: U2OS-DDR1 cells, Type II Collagen stimulation, potency class
Experimental: The inhibition of DDR1 receptor activation by compounds was evaluated by PathHunter® U2OS DDR1 assay (Eurofins DiscoverX), according to the manufacturer's instructions. Briefly, U2OS-DDR1 cells were seeded in white 384-well plates at a density of 5000 cells/well and incubated for 2 hours at 37° C. and 5% CO2. Cells were then treated with compounds at different concentrations and incubated for 30 minutes, before stimulation with bovine Type II Collagen 20 μg/ml and incubation overnight at 37° C. and 5% CO2. PathHunter Detection Reagents were prepared according to the protocol provided by DiscoverX and 20 μl/well of this mix were added to each well. After incubating the plates for 1 hour at room temperature in the dark, luminescence signal was acquired with a plate reader. Raw data were normalized to vehicle control (0% for normalization) and positive control (100% for normalization; cells treated with 20 μg/ml collagen II) and IC50 parameters were calculated in GraphPad Prism 8.0 software, using sigmoidal dose-response curve fitting with variable slope.

[4] = potency class, read-out: Ki DDR1
[5] = potency class, read-out: Ki DDR2

Chain of DDR2 (Q16832 22-855): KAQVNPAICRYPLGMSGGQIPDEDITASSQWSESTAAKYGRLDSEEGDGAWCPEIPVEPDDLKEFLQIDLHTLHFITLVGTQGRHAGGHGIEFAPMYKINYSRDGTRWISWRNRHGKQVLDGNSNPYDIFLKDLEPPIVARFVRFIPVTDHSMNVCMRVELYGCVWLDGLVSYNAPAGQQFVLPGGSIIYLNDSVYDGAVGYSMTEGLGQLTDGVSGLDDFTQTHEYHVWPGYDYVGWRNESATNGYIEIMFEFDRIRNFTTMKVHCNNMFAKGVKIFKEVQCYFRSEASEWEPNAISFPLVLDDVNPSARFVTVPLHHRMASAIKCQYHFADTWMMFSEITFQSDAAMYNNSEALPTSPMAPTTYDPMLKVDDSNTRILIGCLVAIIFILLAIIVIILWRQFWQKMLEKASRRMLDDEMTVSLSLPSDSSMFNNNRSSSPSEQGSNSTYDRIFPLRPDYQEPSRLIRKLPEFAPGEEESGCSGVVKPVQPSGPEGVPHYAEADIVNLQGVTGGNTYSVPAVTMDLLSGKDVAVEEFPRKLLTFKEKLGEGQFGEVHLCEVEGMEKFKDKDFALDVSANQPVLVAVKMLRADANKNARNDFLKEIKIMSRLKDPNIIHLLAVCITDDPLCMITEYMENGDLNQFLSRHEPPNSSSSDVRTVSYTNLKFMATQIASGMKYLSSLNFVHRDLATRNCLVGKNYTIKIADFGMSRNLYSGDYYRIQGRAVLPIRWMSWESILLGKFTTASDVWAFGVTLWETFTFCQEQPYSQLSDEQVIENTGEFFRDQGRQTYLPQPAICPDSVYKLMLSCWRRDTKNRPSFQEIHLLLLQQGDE
T1 sequence (Q08345 19-913): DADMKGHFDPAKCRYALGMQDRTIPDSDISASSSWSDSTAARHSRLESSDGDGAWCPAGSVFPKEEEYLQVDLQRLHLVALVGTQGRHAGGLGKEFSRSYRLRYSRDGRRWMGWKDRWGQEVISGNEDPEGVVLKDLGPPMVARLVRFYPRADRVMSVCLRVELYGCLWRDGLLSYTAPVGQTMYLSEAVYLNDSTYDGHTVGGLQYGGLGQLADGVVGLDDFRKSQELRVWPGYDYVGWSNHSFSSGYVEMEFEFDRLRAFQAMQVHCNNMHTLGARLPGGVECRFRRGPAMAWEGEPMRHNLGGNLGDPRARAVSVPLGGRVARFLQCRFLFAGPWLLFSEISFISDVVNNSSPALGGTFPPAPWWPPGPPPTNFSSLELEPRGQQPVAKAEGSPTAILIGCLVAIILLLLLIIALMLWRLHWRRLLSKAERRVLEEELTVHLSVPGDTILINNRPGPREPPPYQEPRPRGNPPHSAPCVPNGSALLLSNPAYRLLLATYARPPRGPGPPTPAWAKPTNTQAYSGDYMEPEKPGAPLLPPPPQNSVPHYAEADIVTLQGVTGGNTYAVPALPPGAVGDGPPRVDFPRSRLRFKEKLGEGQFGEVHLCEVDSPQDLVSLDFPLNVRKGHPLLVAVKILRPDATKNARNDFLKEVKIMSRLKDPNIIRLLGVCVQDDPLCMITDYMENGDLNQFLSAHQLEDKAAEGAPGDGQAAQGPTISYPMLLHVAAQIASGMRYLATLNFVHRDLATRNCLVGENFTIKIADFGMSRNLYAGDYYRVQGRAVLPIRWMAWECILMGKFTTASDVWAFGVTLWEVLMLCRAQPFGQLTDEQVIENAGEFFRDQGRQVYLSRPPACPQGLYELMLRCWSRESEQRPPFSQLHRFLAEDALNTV

Compound	pKi [1, 4]	pKi [2, 5]	pIC50 [3]	pKi ([1]; read-out: DDR1 Ki)	pKi ([2]; read-out: DDR2 Ki)
CN1CCN(Cc2cc(NC(=O)c3csc4c3CCN(Cc3cccnc3)C4)cc(C(F)(F)F)c2)CC1 [Example 1, N-(3-((4-methylpiperazin-1-yl)methyl)-5-(trifluoromethyl)phenyl)-6-(pyridin-3-ylmethyl)-4,5,6,7-tetrahydrothieno[2,3-c]pyridine-3-carboxamide]	> 7.60	7.30 to 7.60	7.10 to 7.30		
CN1CCN(Cc2cc(NC(=O)c3csc4c3CCN(Cc3cncnc3)C4)cc(C(F)(F)F)c2)CC1 [Example 2, N-(3-((4-methylpiperazin-1-yl)methyl)-5-(trifluoromethyl)phenyl)-6-(pyrimidin-5-ylmethyl)-4,5,6,7-tetrahydrothieno[2,3-c]pyridine-3-carboxamide]	7.30 to 7.60	7.10 to 7.30	7.10 to 7.30		
Cc1cn(-c2cc(NC(=O)c3csc4c3CCN(Cc3cncnc3)C4)cc(C(F)(F)F)c2)cn1 [Example 3, N-(3-(4-methyl-1H-imidazol-1-yl)-5-(trifluoromethyl)phenyl)-6-(pyrimidin-5-ylmethyl)-4,5,6,7-tetrahydrothieno[2,3-c]pyridine-3-carboxamide]	> 7.60	> 7.60	7.30 to 7.60		
CC(C)(c1cc(NC(=O)c2csc3c2CCN(Cc2cncnc2)C3)no1)C(F)(F)F [Example 6, 6-(pyrimidin-5-ylmethyl)-N-(5-(1,1,1-trifluoro-2-methylpropan-2-yl)isoxazol-3-yl)-4,5,6,7-tetrahydrothieno[2,3-c]pyridine-3-carboxamide]	> 7.60	> 7.60	7.30 to 7.60		
O=C(Nc1cc(F)cc(OC(F)(F)F)c1)c1csc2c1CCN(Cc1cncnc1)C2 [Example 7, N-(3-fluoro-5-(trifluoromethoxy)phenyl)-6-(pyrimidin-5-ylmethyl)-4,5,6,7-tetrahydrothieno[2,3-c]pyridine-3-carboxamide]	> 7.60	> 7.60	> 7.60		
O=C(Nc1ccc(F)c(C(F)(F)F)c1)c1csc2c1CCN(Cc1cncnc1)C2 [Example 8, N-(4-fluoro-3-(trifluoromethyl)phenyl)-6-(pyrimidin-5-ylmethyl)-4,5,6,7-tetrahydrothieno[2,3-c]pyridine-3-carboxamide]	> 7.60	> 7.60	7.10 to 7.30		
CC(F)(F)c1cccc(NC(=O)c2csc3c2CCN(Cc2cncnc2)C3)c1 [Example 9, N-(3-(1,1-difluoroethyl)phenyl)-6-(pyrimidin-5-ylmethyl)-4,5,6,7-tetrahydrothieno[2,3-c]pyridine-3-carboxamide]	> 7.60	> 7.60	7.10 to 7.30		
O=C(Nc1ccc(F)c(OC(F)(F)F)c1)c1csc2c1CCN(Cc1cncnc1)C2 [Example 10, N-(4-fluoro-3-(trifluoromethoxy)phenyl)-6-(pyrimidin-5-ylmethyl)-4,5,6,7-tetrahydrothieno[2,3-c]pyridine-3-carboxamide]	> 7.60	> 7.60	> 7.60		
O=C(Nc1cc(C(F)(F)F)ccc1F)c1csc2c1CCN(Cc1cncnc1)C2 [Example 11, N-(2-fluoro-5-(trifluoromethyl)phenyl)-6-(pyrimidin-5-ylmethyl)-4,5,6,7-tetrahydrothieno[2,3-c]pyridine-3-carboxamide]	> 7.60	> 7.60	7.10 to 7.30		
O=C(Nc1cc(F)cc(OC(F)F)c1)c1csc2c1CCN(Cc1cncnc1)C2 [Example 12, N-(3-(difluoromethoxy)-5-fluorophenyl)-6-(pyrimidin-5-ylmethyl)-4,5,6,7-tetrahydrothieno[2,3-c]pyridine-3-carboxamide]	> 7.60	> 7.60	7.30 to 7.60		
O=C(Nc1cccc(OC(F)F)c1)c1csc2c1CCN(Cc1cncnc1)C2 [Example 13, N-(3-(difluoromethoxy)phenyl)-6-(pyrimidin-5-ylmethyl)-4,5,6,7-tetrahydrothieno[2,3-c]pyridine-3-carboxamide]	> 7.60	> 7.60	7.10 to 7.30		
N#Cc1cc(NC(=O)c2csc3c2CCN(Cc2cncnc2)C3)cc(C(F)(F)F)c1 [Example 14, N-(3-cyano-5-(trifluoromethyl)phenyl)-6-(pyrimidin-5-ylmethyl)-4,5,6,7-tetrahydrothieno[2,3-c]pyridine-3-carboxamide]	> 7.60	> 7.60	> 7.60		
Cn1nc(C(C)(C)C)cc1NC(=O)c1csc2c1CCN(Cc1nccnc1N)C2 [Example 15, 6-((3-aminopyrazin-2-yl)methyl)-N-(3-(tert-butyl)-1-methyl-1H-pyrazol-5-yl)-4,5,6,7-tetrahydrothieno[2,3-c]pyridine-3-carboxamide]	> 7.60	> 7.60	7.30 to 7.60		
COCC(=O)Nc1ccncc1CN1CCc2c(C(=O)Nc3cccc(C(F)(F)F)c3)csc2C1 [Example 17, 6-((4-(2-methoxyacetamido)pyridin-3-yl)methyl)-N-(3-(trifluoromethyl)phenyl)-4,5,6,7-tetrahydrothieno[2,3-c]pyridine-3-carboxamide]	> 7.60	7.30 to 7.60	7.30 to 7.60		
N#Cc1cncc(CN2CCc3c(C(=O)Nc4cccc(C(F)(F)F)c4)csc3C2)c1 [Example 19, 6-((5-cyanopyridin-3-yl)methyl)-N-(3-(trifluoromethyl)phenyl)-4,5,6,7-tetrahydrothieno[2,3-c]pyridine-3-carboxamide]	> 7.60	> 7.60	7.30 to 7.60		
O=C(Nc1cccc(C(F)(F)F)c1)c1csc2c1CCN(Cc1cncc(Cl)c1)C2 [Example 20, 6-((5-chloropyridin-3-yl)methyl)-N-(3-(trifluoromethyl)phenyl)-4,5,6,7-tetrahydrothieno[2,3-c]pyridine-3-carboxamide]	> 7.60	> 7.60	7.30 to 7.60		
COc1cncc(CN2CCc3c(C(=O)Nc4cccc(C(F)(F)F)c4)csc3C2)c1 [Example 21, 6-((5-methoxypyridin-3-yl)methyl)-N-(3-(trifluoromethyl)phenyl)-4,5,6,7-tetrahydrothieno[2,3-c]pyridine-3-carboxamide]	> 7.60	> 7.60	> 7.60		
Cc1cncc(CN2CCc3c(C(=O)Nc4cccc(C(F)(F)F)c4)csc3C2)c1 [Example 22, 6-((5-methylpyridin-3-yl)methyl)-N-(3-(trifluoromethyl)phenyl)-4,5,6,7-tetrahydrothieno[2,3-c]pyridine-3-carboxamide]	> 7.60	> 7.60	7.10 to 7.30		
O=C(Nc1cccc(C(F)(F)F)c1)c1csc2c1CCN(Cc1cncc(C(F)(F)F)c1)C2 [Example 23, N-(3-(trifluoromethyl)phenyl)-6-((5-(trifluoromethyl)pyridin-3-yl)methyl)-4,5,6,7-tetrahydrothieno[2,3-c]pyridine-3-carboxamide]	> 7.60	> 7.60	7.30 to 7.60		
CN1CCN(Cc2cc(NC(=O)c3csc4c3CCN(c3cncnc3)C4)cc(C(F)(F)F)c2)CC1 [Example C1, N-(3-((4-methylpiperazin-1-yl)methyl)-5-(trifluoromethyl)phenyl)-6-(pyrimidin-5-yl)-4,5,6,7-tetrahydrothieno[2,3-c]pyridine-3-carboxamide]				6.62	6.76
Cc1cn(-c2cc(NC(=O)c3cc4c(s3)CN(c3cncnc3)CC4)cc(C(F)(F)F)c2)cn1 [Example C2]				4.54	4.30
